According to patent publication US20040077531A1, “Use of galanin-like peptide” (priority 2001, published 2004):

Columns and labels:
Format in all cases: in vivo, rat
[1] = tested on: pituitary hormone levels in plasma; test: Pituitary hormone levels in plasma after GALP administration into the third ventricle; settings: Wistar rats
Procedure: Effects of GALP administration into the third ventricle on pituitary hormone levels in plasma were examined. Briefly, adult male Wistar rats (body weight: 350-380 g at the time of surgery) were anesthetized by intraperitoneal administration of 50 mg/kg pentobarbital and fixed in a stereotaxic apparatus for rat brain. The incisor bar was set 3.3 mm below the interaural line. The skull surface was exposed, and a hole was drilled in the skull with a dental drill in order to implant a guide cannula AG-8 (inside dia. 0.4 mm, outside dia. 0.5 mm; Eicom) in the third ventricle. Further, four anchor screws were embedded around the hole. A stainless guide cannula (AG-12) was inserted so that its tip was located above the third ventricle. The stereotaxic coordinates were set as follows according to the atlas of Paxinos and Watson (1998): AP: −0.8 mm, L: 0.0 mm, […] from bregma. The guide cannula was fixed onto the skull with instant glue, dental cement and the anchor screws. […]
The rats were allowed about one week for recovery after the implantation of the guide cannula. […] Growth hormone (GH), thyroid-stimulating hormone (TSH), follicle-stimulating hormone (FSH), LH, prolactin and adorenocorticotropic hormone (ACTH) contained in the plasma were quantified by radioimmunoassay (GH, TSH, FSH, LH and prolactin; Amersham) (ACTH; Mitsubishi Kagaku).

blood LH levels [2] = test: Blood LH level time course after intraventricular administration in freely moving Wistar rats; settings: for blood LH level compared with the control group: third ventricle, 0-60 min
Procedure: A guide cannula was implanted in adult male Wistar rats treated in the same manner as described in Example 1. The rats were allowed about one week for recovery from the surgery. Then, they received another surgery so that blood samples can be taken from them moving freely. Briefly, the guide cannula-implanted rat was anesthetized by intraperitoneal administration of […] pentobarbital and fixed on an anatomical pad in face-up position. Then, the left jugular vein was exposed. A polyethylene tube SP35 (inside dia. 0.5 mm, outside dia. 0.9 mm; Natsume Seisakusho) was cut to give an about 30 cm length, filled with 200 U/ml heparin-containing physiological saline, inserted into the jugular vein about 4.5 cm, and fixed. The other end of the tube was passed subcutaneously through dorsal skin and exposed from the neck (dorsal).
After one night from the surgery, 300 μl of blood was collected from each rat using a 1 ml injection syringe for tuberculin and a 25-gauge injection needle (both Terumo Corp.) prior to the administration of rat GALP (a peptide consisting of the amino acid sequence as shown in SEQ ID NO: 33). In order to prevent blood coagulation, 10 μl of 300 KIU/ml aprotinin solution containing 3 mg/ml EDTA was added in advance into the injection syringe. The cap nut and the dummy cannula installed on the rat skull were removed. Instead of them, a stainless microinjection cannula (inside dia. 0.17 mm, outside dia. 0.35 mm; Eicom) connected with a Teflon tube (length 50 cm, inside dia. 0.1 mm, outside dia. 0.35 mm; Eicom) was inserted into the guide cannula. The length of the microinjection cannula was adjusted in advance so that 1 mm of it tip was exposed from the guide cannula. One end of the Teflon tube was connected with a microsyringe pump. […] Five minutes after the completion of the injection, the microinjection cannula was removed, and a dummy cannula was fixed again with a cap nut. […] The LH levels in the plasma were measured by radioimmunoassay (Amersham).

blood LH levels [3] = test: Blood LH levels after intraventricular GALP in Zucker fatty and Zucker lean rats; settings: 1 nmol third ventricle
Procedure: Effects of GALP administration into the third ventricle on LH levels in plasma were examined using Zucker obese rats having an abnormality of Leptin receptor. Briefly, adult male Zucker obese rats (body weights at the time of surgery: fatty: 410-430 g; lean: 290-310 g) were anesthetized by intraperitoneal administration of 50 mg/kg pentobarbital and fixed in a stereotaxic apparatus for rat brain. The incisor bar was set 3.3 mm below the interaural line. The skull surface was exposed, and a hole was drilled in the skull with a dental drill in order to implant a guide cannula AG-8 (inside dia. 0.4 mm, outside dia. 0.5 mm; Eicom) in the third ventricle. Further, four anchor screws were embedded around the hole. A stainless guide cannula (AG-12) was inserted so that its tip was located above the third ventricle. The stereotaxic coordinates were set as follows according to the atlas of Paxinos and Watson (1998): for Zucker fatty, AP: −1.00 mm, L: 0.0 mm, H: 5.6 mm from bregma, and for Zucker lean, AP: −0.9 mm, L: 0.0 mm, H: 5.4 mm from bregma. The guide cannula was fixed onto the skull with instant glue, dental cement and the anchor screws. […]
The rats were allowed about one week for recovery after the implantation of the guide cannula. […] The LH levels in the plasma were measured by radioimmunoassay (Amersham).

## rat GALP (APAHRGRGGWTLNSAGYLLGPVLHLSSKANQGRKTDSALEILDLWKAIDGLPYSRSPRMT; Rat)
[1]; 0.5 nmol and 5 nmol intraventricular, 10 min after injection
  blood LH level compared to the control group: significant increase
[1]; intraventricular, 5 nmol/rat
  other pituitary hormone levels in blood (FSH, GH, TSH, ACTH, prolactin): no other pituitary hormone levels were changed
Blood LH levels [2]; 1 nmol administration group
  blood LH level compared with the control group: tendency to rise
Blood LH levels [2]; 5 nmol administration group
  time of peak of blood LH rise after the administration: 30 min
  blood LH level compared with the control group: significant rise
Blood LH levels [3]; Zucker fatty rats, at 10, 20 and 30 min
  blood LH levels compared with the control group: significant rise
Blood LH levels [3]; Zucker lean rats
  blood LH levels compared with the control group: no significant rise
